Assay results: ChEMBL document CHEMBL3046609, “Herbicidal properties of the thaxtomin group of phytotoxins” (2001)
Activity calls are given as the source filed them. The rule behind the calls is not given here.

What was measured:
[1] = test system: Helianthus annuus; experiment: Pre-emergence growth inhibition of Helianthus annuus (sunflower) assessed as visual injury at 4 kg/ha after 16 days relative to control; type: functional; design: scale not given: the % may be the effect or the level left
[2] = test system: Ipomoea hederacea; experiment: Herbicidal activity against Ipomoea hederacea (ivy-leaved morning glory) assessed as visual injury at 1 ug/seedling applied to cotyledon after 1 week relative to control; type: functional
[3] = test system: Helianthus annuus; experiment: Herbicidal activity against Helianthus annuus (sunflower) assessed as visual injury at 1 ug/seedling applied to meristem after 1 week relative to control; type: functional
[4] = test system: Helianthus annuus; experiment: Post-emergence growth inhibition of Helianthus annuus (sunflower) assessed as stunting at 0.5 to 4 kg/ha after 9 days; type: functional, organism-based
[5] = test system: Agrostis stolonifera var. palustris; experiment: Herbicidal activity against Agrostis stolonifera var. palustris assessed as root tip puffing after 9 days by agarose-based test; type: functional, organism-based
[6] = test system: Ipomoea hederacea; experiment: Herbicidal activity against Ipomoea hederacea (ivy-leaved morning glory) assessed as visual injury at 100 ug/seedling applied to meristem after 1 week relative to control; type: functional
[7] = test system: Helianthus annuus; experiment: Post-emergence growth inhibition of Helianthus annuus (sunflower) assessed as visual injury at 2 kg/ha after 9 days relative to control; type: functional; design: scale not given: the % may be the effect or the level left
[8] = test system: Echinochloa crus-galli; experiment: Post-emergence herbicidal activity against Echinochloa crus-galli (barnyard grass) assessed as visual injury at 2 kg/ha after 9 days relative to control; type: functional
[9] = test system: Echinochloa crus-galli; experiment: Pre-emergence herbicidal activity against Echinochloa crus-galli (barnyard grass) after 16 days; type: functional
[10] = test system: Avena fatua; experiment: Pre-emergence growth inhibition of Avena fatua after 16 days; type: functional
[11] = test system: Helianthus annuus; experiment: Post-emergence growth inhibition of Helianthus annuus (sunflower) after 9 days; type: functional
[12] = test system: Ipomoea hederacea; experiment: Post-emergence herbicidal activity against Ipomoea hederacea (ivy-leaved morning glory) assessed as visual injury at 0.5 kg/ha after 9 days relative to control; type: functional
[13] = test system: Ipomoea hederacea; experiment: Herbicidal activity against Ipomoea hederacea (ivy-leaved morning glory) assessed as visual injury at 100 ug/seedling applied to cotyledon after 1 week relative to control; type: functional
[14] = test system: Echinochloa crus-galli; experiment: Post-emergence herbicidal activity against Echinochloa crus-galli (barnyard grass) assessed as stunting at 0.5 to 4 kg/ha after 9 days; type: functional, organism-based
[15] = test system: Helianthus annuus; experiment: Pre-emergence growth inhibition of Helianthus annuus (sunflower) assessed as meristematic at 0.5 to 4 kg/ha after 16 days; type: functional, organism-based
[16] = test system: Agrostis stolonifera var. palustris; experiment: Herbicidal activity against Agrostis stolonifera var. palustris assessed as visual injury at 1 ppm after 9 days relative to control; type: functional
[17] = test system: Ipomoea hederacea; experiment: Herbicidal activity against Ipomoea hederacea (ivy-leaved morning glory) assessed as visual injury at 1 ug/seedling applied to meristem after 1 week relative to control; type: functional
[18] = test system: Echinochloa crus-galli; experiment: Post-emergence herbicidal activity against Echinochloa crus-galli (barnyard grass) assessed as wilting at 0.5 to 4 kg/ha after 9 days; type: functional, organism-based
[19] = test system: Helianthus annuus; experiment: Herbicidal activity against Helianthus annuus (sunflower) assessed as visual injury at 100 ug/seedling applied to meristem after 1 week relative to control; type: functional
[20] = test system: Helianthus annuus; experiment: Pre-emergence growth inhibition of Helianthus annuus (sunflower) after 16 days; type: functional
[21] = test system: Avena fatua; experiment: Post-emergence growth inhibition of Avena fatua after 9 days; type: functional
[22] = test system: Avena fatua; experiment: Post-emergence growth inhibition of Avena fatua assessed as meristematic at 0.5 to 4 kg/ha after 9 days; type: functional, organism-based
[23] = test system: Ipomoea hederacea; experiment: Pre-emergence herbicidal activity against Ipomoea hederacea (ivy-leaved morning glory) assessed as visual injury at 2 kg/ha after 16 days relative to control; type: functional
[24] = test system: Helianthus annuus; experiment: Herbicidal activity against Helianthus annuus (sunflower) assessed as visual injury at 1 ug/seedling applied to cotyledon after 1 week relative to control; type: functional
[25] = test system: Helianthus annuus; experiment: Pre-emergence growth inhibition of Helianthus annuus (sunflower) assessed as visual injury at 2 kg/ha after 16 days relative to control; type: functional; design: scale not given: the % may be the effect or the level left
[26] = test system: Echinochloa crus-galli; experiment: Pre-emergence herbicidal activity against Echinochloa crus-galli (barnyard grass) assessed as visual injury at 0.5 kg/ha after 16 days relative to control; type: functional
[27] = test system: Ipomoea hederacea; experiment: Post-emergence herbicidal activity against Ipomoea hederacea (ivy-leaved morning glory) assessed as meristematic at 0.5 to 4 kg/ha after 9 days; type: functional, organism-based
[28] = test system: Arabidopsis thaliana; experiment: Growth inhibition of Arabidopsis thaliana var. Columbia assessed as root tip puffing after 9 days by agarose-based test; type: functional, organism-based
[29] = test system: Avena fatua; experiment: Pre-emergence growth inhibition of Avena fatua assessed as meristematic at 0.5 to 4 kg/ha after 16 days; type: functional, organism-based
[30] = test system: Avena fatua; experiment: Post-emergence growth inhibition of Avena fatua assessed as visual injury at 2 kg/ha after 9 days relative to control; type: functional; design: scale not given: the % may be the effect or the level left
[31] = test system: Ipomoea hederacea; experiment: Pre-emergence herbicidal activity against Ipomoea hederacea (ivy-leaved morning glory) assessed as stunting at 0.5 to 4 kg/ha after 16 days; type: functional, organism-based
[32] = test system: Avena fatua; experiment: Post-emergence growth inhibition of Avena fatua assessed as visual injury at 4 kg/ha after 9 days relative to control; type: functional; design: scale not given: the % may be the effect or the level left
[33] = test system: Helianthus annuus; experiment: Post-emergence growth inhibition of Helianthus annuus (sunflower) assessed as visual injury at 0.5 kg/ha after 9 days relative to control; type: functional; design: scale not given: the % may be the effect or the level left
[34] = test system: Avena fatua; experiment: Post-emergence growth inhibition of Avena fatua assessed as visual injury at 1 kg/ha after 9 days relative to control; type: functional; design: scale not given: the % may be the effect or the level left
[35] = test system: Echinochloa crus-galli; experiment: Post-emergence herbicidal activity against Echinochloa crus-galli (barnyard grass) after 9 days; type: functional
[36] = test system: Ipomoea hederacea; experiment: Post-emergence herbicidal activity against Ipomoea hederacea (ivy-leaved morning glory) assessed as wilting at 0.5 to 4 kg/ha after 9 days; type: functional, organism-based
[37] = test system: Echinochloa crus-galli; experiment: Pre-emergence herbicidal activity against Echinochloa crus-galli (barnyard grass) assessed as visual injury at 4 kg/ha after 16 days relative to control; type: functional
[38] = test system: Abutilon theophrasti; experiment: Herbicidal activity against Abutilon theophrasti (velvetleaf) assessed as visual injury at 10 ug/seedling applied to meristem after 1 week relative to control; type: functional
[39] = test system: Lemna minor; experiment: Herbicidal activity against Lemna minor (common duckweed) assessed as visual injury at 0.008 ppm after 9 days relative to control; type: functional
[40] = test system: Ipomoea hederacea; experiment: Post-emergence herbicidal activity against Ipomoea hederacea (ivy-leaved morning glory) assessed as visual injury at 4 kg/ha after 9 days relative to control; type: functional
[41] = test system: Ipomoea hederacea; experiment: Pre-emergence herbicidal activity against Ipomoea hederacea (ivy-leaved morning glory) after 16 days; type: functional
[42] = test system: Ipomoea hederacea; experiment: Pre-emergence herbicidal activity against Ipomoea hederacea (ivy-leaved morning glory) assessed as meristematic at 0.5 to 4 kg/ha after 16 days; type: functional, organism-based
[43] = test system: Agrostis stolonifera var. palustris; experiment: Herbicidal activity against Agrostis stolonifera var. palustris assessed as stunting after 9 days by agarose-based test; type: functional, organism-based
[44] = test system: Lemna minor; experiment: Herbicidal activity against Lemna minor (common duckweed) assessed as visual injury at 0.04 ppm after 9 days relative to control; type: functional
[45] = test system: Agrostis stolonifera var. palustris; experiment: Herbicidal activity against Agrostis stolonifera var. palustris assessed as visual injury at 0.2 ppm after 9 days relative to control; type: functional
[46] = test system: Echinochloa crus-galli; experiment: Post-emergence herbicidal activity against Echinochloa crus-galli (barnyard grass) assessed as visual injury at 4 kg/ha after 9 days relative to control; type: functional
[47] = test system: Helianthus annuus; experiment: Herbicidal activity against Helianthus annuus (sunflower) assessed as visual injury at 100 ug/seedling applied to cotyledon after 1 week relative to control; type: functional
[48] = test system: Lemna minor; experiment: Herbicidal activity against Lemna minor (common duckweed) assessed as visual injury at 25 ppm after 9 days relative to control; type: functional
[49] = test system: Lemna minor; experiment: Herbicidal activity against Lemna minor (common duckweed) after 9 days; type: functional
[50] = test system: Ipomoea hederacea; experiment: Pre-emergence herbicidal activity against Ipomoea hederacea (ivy-leaved morning glory) assessed as visual injury at 0.5 kg/ha after 16 days relative to control; type: functional

In the case of `CN1C(=O)[C@](O)(Cc2cccc(O)c2)N(C)C(=O)[C@@H]1Cc1c[nH]c2cccc([N+](=O)[O-])c12` [THAXTOMIN A], the Activity [1] was 100%, the Activity [2] was 0% and the Activity [3] was 50%. The Activity [4] was “Active”, the Activity [5] was “Active” and the Activity [6] was 80%. The Activity [7] was 85%, the Activity [8] was 40% and the GR50 [9] was under 500 g/ha. For the same compound, the GR50 [10] was under 500 g/ha, the GR50 [11] was under 500 g/ha and the Activity [12] was 70%. For the same compound, the Activity [13] was 0%, the Activity [14] was “Active” and the Activity [15] was “Active”. The Activity [16] was 100%, the Activity [17] was 75% and the Activity [18] was “Active”. For the same compound, the Activity [19] was 90%, the GR50 [20] was under 500 g/ha and the GR50 [21] was 2 kg/ha. For the same compound, the Activity [22] was “Active”, the Activity [23] was 100% and the Activity [24] was 0%. For the same compound, the Activity [25] was 100%, the Activity [26] was 98% and the Activity [27] was “Active”. The “growth inhibition (GI)” value [28] was “Active”, the Activity [29] was “Active” and the Activity [30] was 20%. The Activity [31] was “Active”, the Activity [32] was 80% and the Activity [33] was 75%. The Activity [34] was 30%, the GR50 [35] was 2 kg/ha and the Activity [36] was “Active”. The Activity [37] was 100%, the Activity [38] was 75% and the Activity [39] was 30%. For the same compound, the Activity [40] was 85%, the GR50 [41] was under 500 g/ha and the Activity [42] was “Active”. The Activity [43] was “Active”, the Activity [44] was 70% and the Activity [45] was 100%. It also gave an Activity [46] of 85%, an Activity [47] of 0% and an Activity [48] of 100%. The GR50 [49] was 5 ppb and the Activity [50] was 100%.
